Experimental data taken from PubChem BioAssay AID330 (DTP/NCI, 2004).
Where “and” joins values, the source holds several entries; their conditions need not be identical. Equal values may be shown once. Inconclusive results and toxic doses are left out. How the source made its calls: active means survival T/C of 150% or more; inactive means T/C below 125% in these data.

Test system: P388 leukemia ip, CD2F1 mice, survival T/C
Assay: NCI In Vivo Anticancer Drug Screen. Data for tumor model P388 Leukemia (intraperitoneal) in CD2F1 (CDF1) mice
Conditions: endpoint: median survival time, higher = longer survival
Summary of the method: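 Mice carrying the transplanted tumor received test compound or vehicle. Survival was recorded in each group, and the value is the treated-group measurement divided by that of the vehicle-treated control group.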

[1] = dose: 50.0 mg/kg/injection, schedule: Q01DX005 (ip), vehicle: saline with Tween-80
[2] = dose: 100.0 mg/kg/injection, schedule: Q01DX005 (ip), vehicle: saline with Tween-80
[3] = dose: 200.0 mg/kg/injection, schedule: Q01DX005 (ip), vehicle: saline with Tween-80
[4] = dose: 50.0 mg/kg/injection, schedule: Q01DX009 (ip), vehicle: saline with Tween-80
[5] = dose: 100.0 mg/kg/injection, schedule: Q01DX009 (ip), vehicle: saline with Tween-80
[6] = dose: 200.0 mg/kg/injection, schedule: Q01DX009 (ip), vehicle: saline with Tween-80

Measured: T/C

O=C1c2c(O)ccc(N3CCOCC3)c2C(=O)c2c(N3CCOCC3)ccc(O)c21
inactive: dose: 60.0 mg/kg/injection, schedule: Q01DX005 (ip), vehicle: Klucel (hydroxypropylcellulose) (HPC) 103 % of control | dose: 120.0 mg/kg/injection, schedule: Q01DX005 (ip), vehicle: Klucel (hydroxypropylcellulose) (HPC) 98 % of control | dose: 240.0 mg/kg/injection, schedule: Q01DX005 (ip), vehicle: Klucel (hydroxypropylcellulose) (HPC) 100 % of control

CCCCNC(=O)[C@@H]1C[C@H](OP(c2ccccc2)c2ccccc2)CN1P(c1ccccc1)c1ccccc1
inactive: [1] 100 % of control | [2] 100 % of control | [3] 99 % of control

O=C1OC2(CCCC2)OC(=O)C1=C/C=C/c1ccc([N+](=O)[O-])o1
inactive: dose: 50.0 mg/kg/injection, schedule: Q04DX003 (ip), vehicle: saline with Tween-80 99 % of control | dose: 100.0 mg/kg/injection, schedule: Q04DX003 (ip), vehicle: saline with Tween-80 100 % of control and 114 % of control and 96 % of control | dose: 200.0 mg/kg/injection, schedule: Q04DX003 (ip), vehicle: saline with Tween-80 102 % of control and 112 % of control and 96 % of control | dose: 400.0 mg/kg/injection, schedule: Q04DX003 (ip), vehicle: saline with Tween-80 103 % of control and 121 % of control and 86 % of control | dose: 800.0 mg/kg/injection, schedule: Q04DX003 (ip), vehicle: saline with Tween-80 115 % of control

COC(=O)[C@@]12OC[C@]34[C@H]([C@@H](O)[C@@H]1O)[C@@]1(C)C=C(OC5OC(CO)C(O)C(O)C5O)C(=O)[C@@H](C)[C@@H]1C[C@H]3OC(=O)[C@H](OC(=O)/C=C(\C)C(C)C)[C@@H]24 (stereo partly drawn)
inactive: dose: 2.0 mg/kg/injection, schedule: Q01DX005 (ip), vehicle: saline + alcohol 100 % of control | dose: 4.0 mg/kg/injection, schedule: Q01DX005 (ip), vehicle: saline + alcohol 94 % of control | dose: 8.0 mg/kg/injection, schedule: Q01DX005 (ip), vehicle: saline + alcohol 94 % of control | dose: 16.0 mg/kg/injection, schedule: Q01DX005 (ip), vehicle: saline + alcohol 106 % of control | dose: 32.0 mg/kg/injection, schedule: Q01DX005 (ip), vehicle: saline + alcohol 111 % of control | dose: 64.0 mg/kg/injection, schedule: Q01DX005 (ip), vehicle: saline + alcohol 108 % of control

Cc1ccc(S(=O)(=O)N/N=C/c2cccs2)cc1
inactive: [4] 95 % of control | [5] 87 % of control | [6] 93 % of control | dose: 400.0 mg/kg/injection, schedule: Q01DX009 (ip), vehicle: saline with Tween-80 102 % of control

O=CNNC(=O)c1cnccn1
inactive: dose: 89.0 mg/kg/injection, schedule: Q01DX009 (ip), vehicle: water 109 % of control | dose: 133.0 mg/kg/injection, schedule: Q01DX009 (ip), vehicle: water 100 % of control | dose: 200.0 mg/kg/injection, schedule: Q01DX009 (ip), vehicle: water 118 % of control

O=C(O)C1CSC2(CCCC2)N1 (stereo not drawn)
inactive: dose: 100.0 mg/kg/injection, schedule: Q04DX003 (ip), vehicle: saline 101 % of control | dose: 200.0 mg/kg/injection, schedule: Q04DX003 (ip), vehicle: saline 98 % of control | dose: 400.0 mg/kg/injection, schedule: Q04DX003 (ip), vehicle: saline 98 % of control

O=C(CCc1ccccc1)c1c(O)c(Cc2ccccc2O)c2c(c1O)Cc1ccccc1O2
inactive: dose: 1.5 mg/kg/injection, schedule: Q01DX009 (ip), vehicle: Klucel (hydroxypropylcellulose) (HPC) 100 % of control | dose: 3.0 mg/kg/injection, schedule: Q01DX009 (ip), vehicle: Klucel (hydroxypropylcellulose) (HPC) 98 % of control | dose: 6.0 mg/kg/injection, schedule: Q01DX009 (ip), vehicle: Klucel (hydroxypropylcellulose) (HPC) 98 % of control | dose: 12.0 mg/kg/injection, schedule: Q01DX009 (ip), vehicle: Klucel (hydroxypropylcellulose) (HPC) 98 % of control

C/C(=N\NC(=S)N1CCCCC1C)c1nccs1 (stereo not drawn)
inactive: dose: 12.5 mg/kg/injection, schedule: Q01DX005 (ip), vehicle: saline with Tween-80 100 % of control and 108 % of control | dose: 25.0 mg/kg/injection, schedule: Q01DX005 (ip), vehicle: saline with Tween-80 104 % of control and 111 % of control | [1] 112 % of control and 118 % of control

O=C(c1ccccc1)c1cc(Cl)ccc1NCC(O)COc1cccc2ccccc12 (stereo not drawn)
inactive: dose: 60.0 mg/kg/injection, schedule: Q01DX005 (ip), vehicle: saline with Tween-80 100 % of control | dose: 120.0 mg/kg/injection, schedule: Q01DX005 (ip), vehicle: saline with Tween-80 91 % of control | dose: 240.0 mg/kg/injection, schedule: Q01DX005 (ip), vehicle: saline with Tween-80 88 % of control

COc1cc2c(c(OC)c1OC)-c1cc3c(cc1C(OC1OC4COC(C)OC4C(O)C1O)C1COC(=O)C1C2)OCO3 (stereo not drawn)
inactive: dose: 17.5 mg/kg/injection, schedule: Q01DX005 (ip), vehicle: Klucel (hydroxypropylcellulose) (HPC) 103 % of control | dose: 35.0 mg/kg/injection, schedule: Q01DX005 (ip), vehicle: Klucel (hydroxypropylcellulose) (HPC) 101 % of control | dose: 70.0 mg/kg/injection, schedule: Q01DX005 (ip), vehicle: Klucel (hydroxypropylcellulose) (HPC) 119 % of control | dose: 140.0 mg/kg/injection, schedule: Q01DX005 (ip), vehicle: Klucel (hydroxypropylcellulose) (HPC) 119 % of control

O=c1c2ccccc2oc2nc3ccc(Cl)cc3n12
inactive: [1] 112 % of control | [2] 101 % of control | [3] 98 % of control

CCOC(=O)/C=C1\NC(=O)N(CCCCCCN2C(=O)N/C(=C\C(=O)OCC)C2=O)C1=O
inactive: [4] 101 % of control | [5] 93 % of control | [6] 93 % of control

CCOC(=O)/C=C(/Nc1cccc(OC)c1)c1ccccc1
inactive: dose: 25.0 mg/kg/injection, schedule: Q01DX009 (ip), vehicle: other 97 % of control | dose: 50.0 mg/kg/injection, schedule: Q01DX009 (ip), vehicle: other 103 % of control | dose: 100.0 mg/kg/injection, schedule: Q01DX009 (ip), vehicle: other 98 % of control | dose: 200.0 mg/kg/injection, schedule: Q01DX009 (ip), vehicle: other 91 % of control | dose: 400.0 mg/kg/injection, schedule: Q01DX009 (ip), vehicle: other 105 % of control

CCN(CC)CCOCCC1(C)Oc2ccc(Cl)cc2O1 (stereo not drawn)
inactive: dose: 50.0 mg/kg/injection, schedule: Q01DX009 (ip), vehicle: saline 93 % of control | dose: 100.0 mg/kg/injection, schedule: Q01DX009 (ip), vehicle: saline 93 % of control

C/C1=C/C(C)C(O)C(O)C(=O)C2(C)CNC3=C(O2)C(=O)c2c(cc(C)c(O)c2C1=O)C3=O (stereo not drawn)
inactive: dose: 0.5 mg/kg/injection, schedule: Q01DX009 (ip), vehicle: distilled water + Tween-80 102 % of control and 122 % of control | dose: 1.0 mg/kg/injection, schedule: Q01DX009 (ip), vehicle: distilled water + Tween-80 106 % of control and 117 % of control | dose: 2.0 mg/kg/injection, schedule: Q01DX009 (ip), vehicle: distilled water + Tween-80 108 % of control | dose: 4.0 mg/kg/injection, schedule: Q01DX009 (ip), vehicle: distilled water + Tween-80 102 % of control and 103 % of control | dose: 16.0 mg/kg/injection, schedule: Q01DX009 (ip), vehicle: distilled water + Tween-80 103 % of control and 107 % of control | dose: 32.0 mg/kg/injection, schedule: Q01DX009 (ip), vehicle: distilled water + Tween-80 101 % of control and 103 % of control | dose: 4.0 micrograms/kg/injection, schedule: Q01DX009 (ip), vehicle: water 115 % of control | dose: 8.0 micrograms/kg/injection, schedule: Q01DX009 (ip), vehicle: water 99 % of control | dose: 16.0 micrograms/kg/injection, schedule: Q01DX009 (ip), vehicle: water 98 % of control | dose: 32.0 micrograms/kg/injection, schedule: Q01DX009 (ip), vehicle: water 99 % of control | dose: 64.0 micrograms/kg/injection, schedule: Q01DX009 (ip), vehicle: saline + alcohol 100 % of control | dose: 64.0 micrograms/kg/injection, schedule: Q01DX009 (ip), vehicle: water 102 % of control | dose: 128.0 micrograms/kg/injection, schedule: Q01DX009 (ip), vehicle: saline + alcohol 100 % of control | dose: 256.0 micrograms/kg/injection, schedule: Q01DX009 (ip), vehicle: saline + alcohol 103 % of control
